The values that follow come from patent US7064115B2, “(20S)-1α-hydroxy-2α-methyl and 2β-methyl-19-nor-vitamin D3 and their uses” (Wisconsin Alumni Research Foundation, priority 2002, dated 2006).

A short description of assay [1]: Serum calcium (bone calcium mobilization) in rats on low calcium diet, chronic i.p. doses. The assay is classed as in vivo, Sprague-Dawley rats. Set-up: Serum Ca (mean ± SEM): unit not given here. To be noted: for Serum Ca (mean ± SEM): male weanling rats, 0.02% Ca diet, 5 animals; for Bone calcium mobilization activity relative to 1,25-(OH)2D3 (in words): summary of Table 1. On the procedure:
The in vivo tests to determine serum calcium of rats on a low calcium diet provides an insight to […] or bone activity of (20S)-1α-hydroxy-2α-methyl-19-nor-vitamin D3 and (20S)-1α-hydroxy-2β-methyl-19-nor-vitamin D3.
(§1) Male, weanling Sprague-Dawley rats were placed on Diet 11 (0.47% Ca) diet+AEK for 11 days, followed by Diet 11 (0.02% Ca)+AEK for 31 days. Dosing (i.p.) began 7 days prior to sacrifice. Doses were given on a daily basis, 24 hours apart. The first 10 cm of the intestine was collected for gut transport studies and serum was collected for bone Ca mobilization analysis.

Assay [2] is described as follows: Intestinal calcium transport in rats on low calcium diet, chronic i.p. doses. It is filed as in vivo, Sprague-Dawley rats. To be noted: for Ca transport S/M (mean ± SEM): male weanling rats, 0.02% Ca diet, 5 animals; for Activity in stimulating intestinal calcium transport relative to 1,25-(OH)2D3 (in words): summary of Table 1. On the procedure:
Intestinal calcium transport was determined as described by Perlman et al. (Biochemistry 29, 190–196, 1990).
as §1

For assay [3], the target named is T1, vitamin D pig intestinal nuclear receptor (Sus scrofa, UniProt A3RGC1).
T1 construct: from tissue; host or cells: pig intestine (nuclear receptor preparation)
T1 sequence (A3RGC1 1-427): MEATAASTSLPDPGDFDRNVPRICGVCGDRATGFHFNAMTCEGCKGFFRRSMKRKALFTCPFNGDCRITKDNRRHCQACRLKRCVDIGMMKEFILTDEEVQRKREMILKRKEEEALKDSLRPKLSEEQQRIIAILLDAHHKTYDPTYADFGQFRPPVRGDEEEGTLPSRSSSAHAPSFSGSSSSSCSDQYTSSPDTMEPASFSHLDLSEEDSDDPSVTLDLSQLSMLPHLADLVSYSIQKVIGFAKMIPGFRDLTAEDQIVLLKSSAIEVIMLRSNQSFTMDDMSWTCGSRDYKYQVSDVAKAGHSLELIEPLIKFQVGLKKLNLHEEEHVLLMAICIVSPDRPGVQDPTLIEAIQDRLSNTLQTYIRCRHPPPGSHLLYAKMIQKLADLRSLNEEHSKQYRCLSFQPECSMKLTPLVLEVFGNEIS
Description: Competitive binding of [3H]-1,25-(OH)2-D3 to the porcine intestinal vitamin D receptor. To be noted: FIG. 1; for Binding to the vitamin D receptor (in words): compared with 1,25-(OH)2D3. On the procedure:
FIG. 1 is a graph illustrating the relative activity of (20S)-1α-hydroxy-2α-methyl-19-nor-vitamin D3, (20S)-1α-hydroxy-2β-methyl-19-nor-vitamin D3, and 1α,25-dihydroxyvitamin D3 to compete for binding of [^3H]-1,25-(OH)2-D3 to the vitamin D pig intestinal nuclear receptor; and
Competitive binding of the analogs to the porcine intestinal receptor was carried out by the method described by Dame et al. (Biochemistry 25, 4523–4534, 1986).

In assay [4] the test system is HL-60 cells. Description: Differentiation of HL-60 promyelocytes into monocytes. The note with it: FIG. 2. It is filed as cell-based. On the procedure:
FIG. 2 is a graph illustrating the percent HL-60 cell differentiation as a function of the concentration of (20S)-1α-hydroxy-2α-methyl-19-nor-vitamin D3, (20S)-1α-hydroxy-2β-methyl-19-nor-vitamin D3, and of 1α,25-dihydroxyvitamin D3.
The differentation of HL-60 promyelocytic into monoctyes was determined as described by Ostrem et al. (J. Boil. Chem. 262, 14164–14171, 1987).

Setting [5] is: 130 pmol/day i.p. daily for 7 days.
The mark [6] stands for this setting: 260 pmol/day i.p. daily for 7 days.

Take `C=C1/C(=C\C=C2/CCC[C@]3(C)[C@@H]([C@H](C)CCCC(C)(C)O)CC[C@@H]23)C[C@@H](O)C[C@@H]1O` [1α,25-(OH)2D3, 1α,25-dihydroxyvitamin D3, reference compound]: the results for the “Serum Ca (mean ± SEM)” value in assay [1] (setting [5]) and in assay [1] (setting [6]) were 5.0 ± 0.05 and 5.5 ± 0.16, respectively. The “Ca transport S/M (mean ± SEM)” value is reported as 5.3 ± 0.42 in assay [2] (setting [5]) and 6.5 ± 0.84 in assay [2] (setting [6]).
Regarding `CC(C)CCC[C@H](C)C1CCC2/C(=C/C=C3C[C@@H](O)C(C)[C@H](O)C3)CCC[C@@]21C` (stereo partly drawn) [(20S)-1α-(OH)-2α-methyl-19-nor-D3, (20S)-1α-hydroxy-2α-methyl-19-nor-vitamin D3], the “Binding to the vitamin D receptor (in words)” value in assay [3] is listed as “much less active than 1,25(OH)2D3”. Further, in assay [3] (relative to 1,25-(OH)2D3), the “Affinity for the vitamin D receptor, fold less than 1α,25-dihydroxyvitamin D3” value came out at 100 fold. The “Serum Ca (mean ± SEM)” value was determined as 10.0 ± 0.20 in assay [1] (setting [5]) and 12.7 ± 0.15 in assay [1] (setting [6]). Moreover, the “Bone calcium mobilization activity relative to 1,25-(OH)2D3 (in words)” value in assay [1] is given as “higher bone calcium mobilization activity, as compared to 1,25-(OH)2D3”. For the same compound, the “Potency on HL-60 differentiation relative to 1,25-(OH)2D3 (in words)” value in assay [4] (listed as (20S)-1α-Hydroxy-2α-methyl-19-nor-vitamin D3) is listed as “only slightly less active than 1,25-(OH)2D3”; in assay [4] (listed as (20S)-1α-hydroxy-2α-methyl-19-nor-vitamin D3), “almost as potent as 1,25-(OH)2D3”. Further, the “Ca transport S/M (mean ± SEM)” value in assay [2] (setting [5]) is 8.6 ± 0.90; in assay [2] (setting [6]) it was 6.7 ± 0.68. In addition, the “Activity in stimulating intestinal calcium transport relative to 1,25-(OH)2D3 (in words)” value in assay [2] was “high activity relative to that of 1,25-(OH)2D3”.
With `CC(C)CCC[C@H](C)C1CCC2/C(=C/C=C3C[C@@H](O)C(C)[C@H](O)C3)CCC[C@@]21C` (stereo partly drawn) [(20S)-1α-(OH)-2β-methyl-19-nor-D3, (20S)-1α-hydroxy-2β-methyl-19-nor-vitamin D3], the “Binding to the vitamin D receptor (in words)” value in assay [3] is on record as “much less active than 1,25(OH)2D3”; in assay [3] (listed as 2β-methyl-(20S)-1α-hydroxyvitamin D3), “does not bind”. Also, the “Serum Ca (mean ± SEM)” value in assay [1] (setting [5]) amounted to 4.8 ± 0.04; in assay [1] (setting [6]) it was 5.1 ± 0.04. Further, the “Bone calcium mobilization activity relative to 1,25-(OH)2D3 (in words)” value in assay [1] is on record as “about the same as 1,25-(OH)2D3”. Further, the “Potency on HL-60 differentiation relative to 1,25-(OH)2D3 (in words)” value in assay [4] was “only slightly less active than 1,25-(OH)2D3”. Moreover, the “HL-60 differentiation activity, times less active than 1,25(OH)2D3” value in assay [4] (relative to 1,25(OH)2D3) is 100 times. In addition, the “Ca transport S/M (mean ± SEM)” value in assay [2] (setting [5]) was 6.8 ± 0.73; in assay [2] (setting [6]), 5.7 ± 0.45. In addition, the “Activity in stimulating intestinal calcium transport relative to 1,25-(OH)2D3 (in words)” value in assay [2] is given as “about the same as 1,25-(OH)2D3”.
